Strand notation (5' to 3'): a small letter for the sugar, then the base; units joined by * are phosphorothioate-linked, units joined directly phosphodiester-linked; [ ] holds rarer units or linkages, { } end groups; capitals alone tell only the bases. e = 2'-O-(2-methoxyethyl) (MOE); [5mC] = 5-methylcytosine; d = 2'-deoxy (DNA)
System: human Factor 7 mRNA
Assay: Antisense inhibition of human Factor 7 mRNA in HepB3 cells, 50 nM antisense oligonucleotide, lipofectin
Type: cell-based
Conditions: for % Inhibition: lipofectin, approximately 24 hours
Outline: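 Readout is percent reduction of Factor 7 message compared with untreated cells, after correction for total RNA content quantified by RIBOGREEN®. Cultures were seeded at 4,000 cells per well and treated for about 24 hours before RNA extraction.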

[1] = 50 nM antisense oligonucleotide, Factor 7 mRNA by real-time RT-PCR (RTS 2927), relative to untreated control
[2] = oligonucleotides targeted to nucleobases 15098 to 15122 of SEQ ID NO: 1 (Table 12)
[3] = oligonucleotides targeted to nucleobases 11830 to 11869 of SEQ ID NO: 1 (Table 9)
[4] = Table 1, 50 nM, relative to untreated control cells
[5] = oligonucleotides targeted to nucleobases 13760 to 13789 of SEQ ID NO: 1 (Table 10)
[6] = oligonucleotides targeted to nucleobases 14707 to 14732 of SEQ ID NO: 1 (Table 11)

## 416488 (antisense e[5mC]*eA*eG*eG*eT*d[5mC]*d[5mC]*dT*d[5mC]*d[5mC]*d[5mC]*dA*d[5mC]*dT*dG*e[5mC]*eA*eG*e[5mC]*e[5mC]) [compound 416488]
[1]
  % Inhibition: 41%

## 422285 (antisense eG*e[5mC]*dA*d[5mC]*dA*d[5mC]*dA*dT*dG*dG*dA*dG*dT*d[5mC]*dA*eG*e[5mC]*eA*eT*e[5mC]) [compound 422285]
[2]
  % Inhibition (human Factor 7 mRNA levels): 39%

## 422250 (antisense e[5mC]*eT*dG*dG*d[5mC]*dT*dG*dA*dG*dG*dA*dG*dA*d[5mC]*dA*eA*eT*eG*eG*eT) [compound 422250]
[3]
  % Inhibition (human Factor 7 mRNA levels): 54%

## 416505 (antisense eG*e[5mC]*eA*eG*eA*dT*dT*dT*dG*d[5mC]*dA*dT*d[5mC]*dA*dG*eA*eA*eA*eA*eG) [compound 416505]
[1]
  % Inhibition: 45%

## 407954 (antisense e[5mC]*eA*eG*eG*eG*dA*dG*dA*dG*dA*dA*d[5mC]*dA*dT*d[5mC]*e[5mC]*eA*eA*eT*eT) [compound 407954]
[4]
  % Inhibition: 39%

## 416522 (antisense eG*eG*e[5mC]*eT*eG*dA*dG*dA*dA*dT*dT*dG*d[5mC]*d[5mC]*d[5mC]*eA*eG*eG*eG*e[5mC]) [compound 416522]
[1]
  % Inhibition: 25%

## 407669 (antisense eT*eA*eG*eA*e[5mC]*d[5mC]*d[5mC]*dT*d[5mC]*dA*dG*dT*dG*dA*dG*eT*eG*eT*e[5mC]*eG) [compound 407669]
[4]
  % Inhibition: 57%

## 416494 (antisense e[5mC]*eA*eG*eA*eT*dT*dT*dA*dA*dA*d[5mC]*dT*dG*d[5mC]*dA*eG*eA*eT*eG*eA) [compound 416494]
[1]
  % Inhibition: 0%

## 422259 (antisense e[5mC]*eG*d[5mC]*d[5mC]*dA*d[5mC]*d[5mC]*d[5mC]*dG*d[5mC]*d[5mC]*dG*dG*d[5mC]*dT*e[5mC]*eT*eG*e[5mC]*eT) [compound 422259]
[5]
  % Inhibition (human Factor 7 mRNA levels): 61%

## 407892 (antisense e[5mC]*e[5mC]*e[5mC]*e[5mC]*eA*dT*dT*d[5mC]*dT*dG*dG*d[5mC]*dA*dT*dG*eG*eA*e[5mC]*eT*eT) [compound 407892]
[4]
  % Inhibition: 68%

## 416425 (antisense eA*eA*eG*e[5mC]*eA*dG*dA*dA*dG*dG*d[5mC]*dA*dG*dA*dG*eG*eA*eG*e[5mC]*e[5mC]) [compound 416425]
[1]
  % Inhibition: 13%

## 407923 (antisense e[5mC]*eA*eG*eG*eA*d[5mC]*dA*dG*dT*dT*d[5mC]*dG*dA*d[5mC]*dG*e[5mC]*eA*eG*e[5mC]*e[5mC]) [compound 407923]
[4]
  % Inhibition: 76%

## 416565 (antisense e[5mC]*eA*eG*eG*eA*dT*dG*d[5mC]*dT*d[5mC]*dA*dT*dG*dG*d[5mC]*eA*eG*eA*e[5mC]*eA) [compound 416565]
[1]
  % Inhibition: 0%

## 422091 (antisense eT*eG*eG*eT*e[5mC]*dA*dG*dG*dG*d[5mC]*dT*dG*dG*dT*dT*eT*eT*eG*eG*eA) [compound 422091]
[3]
  % Inhibition (human Factor 7 mRNA levels): 42%

## 416428 (antisense e[5mC]*eT*eG*eG*eG*dT*dT*dA*d[5mC]*dG*dA*dA*dG*dA*d[5mC]*eT*eG*e[5mC]*eA*eG) [compound 416428]
[1]
  % Inhibition: 11%

## 407925 (antisense eG*eA*eA*eT*eA*dT*dA*dT*dG*dG*dG*dA*dT*dT*dT*eG*eG*eT*eG*e[5mC]) [compound 407925]
[4]
  % Inhibition: 64%

## 416481 (antisense eA*eG*eA*eT*eG*dA*dT*dA*dA*dT*dG*dG*dA*dT*dA*eA*eG*eA*eA*e[5mC]) [compound 416481]
[1]
  % Inhibition: 15%

## 407886 (antisense eG*e[5mC]*eA*eG*eA*dG*dG*dA*dG*d[5mC]*d[5mC]*dT*dG*dA*dG*eG*eG*e[5mC]*e[5mC]*eT) [compound 407886]
[4]
  % Inhibition: 72%

## 407618 (antisense eG*eT*eA*eT*eT*dT*dT*dT*d[5mC]*d[5mC]*dA*d[5mC]*dA*dT*dG*eG*eA*eT*eA*eT) [compound 407618]
[4]
  % Inhibition: 42%

## 416452 (antisense e[5mC]*e[5mC]*eA*eA*e[5mC]*dA*dA*d[5mC]*dA*dG*dG*dA*d[5mC]*d[5mC]*dT*eG*e[5mC]*e[5mC]*eA*eT) [compound 416452]
[1]
  % Inhibition: 19%

## 416442 (antisense eA*eG*e[5mC]*eA*eG*dA*dT*dA*dT*dA*dG*dG*dA*d[5mC]*dT*eG*eG*eA*eG*e[5mC]) [compound 416442]
[1]
  % Inhibition: 57%

## 407938 (antisense e[5mC]*eA*e[5mC]*e[5mC]*e[5mC]*dA*dG*d[5mC]*dG*dA*dA*dG*dG*dG*dA*eG*eA*eA*eA*eT) [compound 407938]
[4]
  % Inhibition: 60%

## 416439 (antisense eG*eT*e[5mC]*e[5mC]*eT*dT*dG*d[5mC]*dA*dG*dG*dA*dG*d[5mC]*d[5mC]*e[5mC]*e[5mC]*e[5mC]*eA*eT) [compound 416439]
[1]
  % Inhibition: 56%

## 422265 (antisense eG*e[5mC]*dG*dG*dA*dA*dG*dA*dA*dG*dG*dG*dA*d[5mC]*dG*eG*eA*eA*eG*eG) [compound 422265]
Table 6, 50 nM
  % Inhibition: 34%

## 416556 (antisense eA*eT*eA*eG*e[5mC]*dT*dT*dT*dG*dA*dT*d[5mC]*d[5mC]*dA*dA*eT*eG*e[5mC]*eT*e[5mC]) [compound 416556]
[1]
  % Inhibition: 53%

## 407642 (antisense e[5mC]*eA*eG*e[5mC]*eA*dG*d[5mC]*d[5mC]*dT*dG*dA*dG*dG*d[5mC]*d[5mC]*eA*eG*e[5mC]*eA*eG) [compound 407642]
[4]
  % Inhibition: 78%
[6]
  % Inhibition (human Factor 7 mRNA levels): 63%

## 407615 (antisense eG*eA*e[5mC]*eA*e[5mC]*d[5mC]*d[5mC]*d[5mC]*dG*dT*d[5mC]*dT*dG*d[5mC]*d[5mC]*eA*eG*e[5mC]*eA*eG) [compound 407615]
[4]
  % Inhibition: 65%

## 422287 (antisense e[5mC]*eA*dG*d[5mC]*dA*d[5mC]*dA*d[5mC]*dA*dT*dG*dG*dA*dG*dT*e[5mC]*eA*eG*e[5mC]*eA) [compound 422287]
[2]
  % Inhibition (human Factor 7 mRNA levels): 41%

## 407611 (antisense eT*e[5mC]*eT*e[5mC]*eA*d[5mC]*dA*dG*dT*dT*d[5mC]*d[5mC]*dG*dG*d[5mC]*e[5mC]*e[5mC]*eT*e[5mC]*eG) [compound 407611]
[4]
  % Inhibition: 82%

## 422204 (antisense eG*e[5mC]*eA*dG*d[5mC]*d[5mC]*dT*dG*dA*dG*dG*d[5mC]*d[5mC]*dA*dG*d[5mC]*dA*eG*eA*eT) [compound 422204]
[6]
  % Inhibition (human Factor 7 mRNA levels): 72%

## 407609 (antisense eA*eG*eA*eA*eG*d[5mC]*dA*dG*dA*dT*dA*dT*dA*dG*dG*eA*e[5mC]*eT*eG*eG) [compound 407609]
[4]
  % Inhibition: 35%

## 416519 (antisense eA*eA*eA*eT*eA*dT*dG*dG*dG*dA*d[5mC]*d[5mC]*d[5mC]*dA*dA*eA*eG*eT*eG*eG) [compound 416519]
[1]
  % Inhibition: 9%

## 416459 (antisense eT*eG*eG*eT*e[5mC]*dA*dG*dT*dG*dA*dG*dG*dA*d[5mC]*d[5mC]*eA*e[5mC]*eG*eG*eG) [compound 416459]
[1]
  % Inhibition: 23%

## 407895 (antisense e[5mC]*eA*e[5mC]*eA*e[5mC]*dA*dG*dA*dT*d[5mC]*dA*dG*d[5mC]*dT*dG*eG*eT*e[5mC]*eA*eT) [compound 407895]
[4]
  % Inhibition: 72%

## 416569 (antisense eG*e[5mC]*e[5mC]*eT*eG*dG*dT*dG*dT*dG*d[5mC]*dA*d[5mC]*dA*d[5mC]*eA*eT*eT*eG*eT) [compound 416569]
[1]
  % Inhibition: 12%

## 422258 (antisense eG*e[5mC]*d[5mC]*dA*d[5mC]*d[5mC]*d[5mC]*dG*d[5mC]*d[5mC]*dG*dG*d[5mC]*dT*d[5mC]*eT*eG*e[5mC]*eT*e[5mC]) [compound 422258]
[5]
  % Inhibition (human Factor 7 mRNA levels): 66%

## 422221 (antisense eG*e[5mC]*e[5mC]*d[5mC]*dG*dA*dG*dT*dT*d[5mC]*dT*dG*d[5mC]*dA*dG*dG*dA*eG*e[5mC]*eG) [compound 422221]
Gapmers targeted to nucleobases 4868 to 4899 of SEQ ID NO: 1, Table 8
  % Inhibition of human Factor 7 mRNA levels: 59%

## 416541 (antisense e[5mC]*e[5mC]*eA*e[5mC]*e[5mC]*d[5mC]*dT*dT*dG*dG*dT*dG*d[5mC]*d[5mC]*d[5mC]*eA*eG*eA*eT*e[5mC]) [compound 416541]
[1]
  % Inhibition: 53%

## 422253 (antisense e[5mC]*e[5mC]*dG*d[5mC]*d[5mC]*dG*dG*d[5mC]*dT*d[5mC]*dT*dG*d[5mC]*dT*d[5mC]*eA*eT*e[5mC]*e[5mC]*e[5mC]) [compound 422253]
[5]
  % Inhibition (human Factor 7 mRNA levels): 61%

## 407917 (antisense eA*e[5mC]*eA*e[5mC]*e[5mC]*d[5mC]*d[5mC]*dA*dA*dA*dG*dT*dG*dG*d[5mC]*e[5mC]*e[5mC]*eA*e[5mC]*eG) [compound 407917]
[4]
  % Inhibition: 70%

## 416495 (antisense eT*e[5mC]*eT*eA*eG*dA*dA*dT*dT*d[5mC]*d[5mC]*dA*dA*dA*d[5mC]*e[5mC]*e[5mC]*e[5mC]*eT*eA) [compound 416495]
[1]
  % Inhibition: 0%

## 422263 (antisense eG*eG*dA*dA*dG*dA*dA*dG*dG*dG*dA*d[5mC]*dG*dG*dA*eA*eG*eG*eT*eG) [compound 422263]
Table 6, 50 nM
  % Inhibition: 19%

## 416496 (antisense e[5mC]*eA*eA*e[5mC]*eA*d[5mC]*dT*dT*d[5mC]*dA*dA*dA*dT*dA*d[5mC]*eG*eA*eT*e[5mC]*eT) [compound 416496]
[1]
  % Inhibition: 0%

## 422135 (antisense eA*eG*e[5mC]*eA*e[5mC]*dA*d[5mC]*dA*dT*dG*dG*dA*dG*dT*d[5mC]*eA*eG*e[5mC]*eA*eT) [compound 422135]
[2]
  % Inhibition (human Factor 7 mRNA levels): 53%

## 416457 (antisense eG*eG*eA*eT*eG*dA*dT*dG*dA*d[5mC]*d[5mC]*dT*dG*d[5mC]*dG*e[5mC]*e[5mC]*eA*e[5mC]*e[5mC]) [compound 416457]
[1]
  % Inhibition: 48%

From US9029337B2, “Modulation of factor 7 expression” (Isis Pharmaceuticals, Inc., priority 2007, dated 2015)
